Assay results taken from patent US20260256792A1, “TREATMENT OF CHRONIC SPONTANEOUS URTICARIA BY ADMINISTERING (R)-2-[3-[4-AMINO-3-(2-FLUORO-4-PHENOXY-PHENYL)PYRAZOLO[3,4-D]PYRIMIDIN-1-YL]PIPERIDINE-1-CARBONYL]-4-METHYL-4-[4-(OXETAN-3-YL)PIPERAZIN-1-YL]PENT-2-ENENITRILE” (priority 2023, published 2026).

System: moderate-to-severe chronic spontaneous urticaria (CSU)
Experiment: Phase 2 CSU study: urticaria activity score over 7 days (UAS7)
Type: in vivo, human
Conditions: for RRD (%) for rilzabrutinib vs. placebo, UAS7 = 0 / RRD (%) for rilzabrutinib vs. placebo, UAS7 ≤6 / Responder n (%), UAS7 = 0 / Responder n (%), UAS7 ≤6 / Imputed non-responder n (%), UAS7 = 0 / Imputed non-responder n (%), UAS7 ≤6 / Non-responder n (%), UAS7 = 0 / Non-responder n (%), UAS7 ≤6 / OR for rilzabrutinib vs. placebo, UAS7 = 0 / OR for rilzabrutinib vs. placebo, UAS7 ≤6: ITT, 400 mg TID; for UAS7 Post-baseline Mean (SD): Omalizumab-Naïve Population with Outlier Removed
Excerpt: The study comprises a 12 week, randomized, double-blind, placebo-controlled, multi-center, dose-ranging efficacy and safety phase, followed by a 40 week open label extension (OLE) phase (see FIG. 1). The study consists of three phases and an optional OLE phase. […] Clinically, CSU is characterized by the spontaneous and recurrent appearance of pruritic hives. The proposed primary endpoints were the UAS7 at Week 12 in EU and EU reference countries and the ISS7 in the US. Regardless of where a participant was from, all assessments were the same. The UAS7 score is a composite score containing both the HSS7 and the ISS7. This allowed a global assessment of the two key components of urticaria: hives and itch. […] The UAS is a validated PRO measure. […] The daily UAS scores range from 0 to 6 point/day. […] Patients were to complete the UAS using the e-diary. […] The following secondary endpoints were to be analyzed using the same approach as for the primary endpoint: • Change from baseline in UAS7 at Week 4 • Change from baseline in UAS7 at Week 12 (for US and US reference countries) • Change from baseline in ISS7 at Week 12 (except US and US reference countries) • Change from baseline in HSS7 at Week 12 The following responder secondary endpoints were to be analyzed using the Cochran-Mantel-Haenszel test adjusted by region: • Proportion of participants with UAS7<6 at Week 12 • Proportion of participants with UAS7=0 at Week 12 Participants who received selected prohibited medications and/or rescue medications were to be considered as non-responders for time points after the medication usage. For other participants, all available data including those collected during the off-treatment period were to be used to determine the responder/non-responder status. Missing data were to be considered as non-responders.

SMILES: CC(C)(C=C(C#N)C(=O)N1CCC[C@@H](n2nc(-c3ccc(Oc4ccccc4)cc3F)c3c(N)ncnc32)C1)N1CCN(C2COC2)CC1 [rilzabrutinib, (R)-2-[3-[4-amino-3-(2-fluoro-4-phenoxy-phenyl)pyrazolo[3,4-d]pyrimidin-1-yl]piperidine-1-carbonyl]-4-methyl-4-[4-(oxetan-3-yl)piperazin-1-yl]pent-2-enenitrile]
- RRD (%) for rilzabrutinib vs. placebo, UAS7 = 0 (Week 7): 6.9 %
- RRD (%) for rilzabrutinib vs. placebo, UAS7 ≤6 (Week 7): 16.1 %
- Responder n (%), UAS7 = 0 (Week 7): 4 (9.8) n (%)
- Responder n (%), UAS7 ≤6 (Week 7): 11 (26.8) n (%)
- Imputed non-responder n (%), UAS7 = 0 (Week 8): 8 (19.5) n (%)
- Imputed non-responder n (%), UAS7 ≤6 (Week 8): 8 (19.5) n (%)
- Non-responder n (%), UAS7 = 0 (Week 8): 37 (90.2) n (%)
- Non-responder n (%), UAS7 ≤6 (Week 8): 28 (68.3) n (%)
- OR for rilzabrutinib vs. placebo, UAS7 = 0 (Week 8): 1.697
- OR for rilzabrutinib vs. placebo, UAS7 ≤6 (Week 8): 2.257
- RRD (%) for rilzabrutinib vs. placebo, UAS7 = 0 (Week 8): 3.2 %
- RRD (%) for rilzabrutinib vs. placebo, UAS7 ≤6 (Week 8): 12.7 %
- Responder n (%), UAS7 = 0 (Week 8): 4 (9.8) n (%)
- Responder n (%), UAS7 ≤6 (Week 8): 13 (31.7) n (%)
- Imputed non-responder n (%), UAS7 = 0 (Week 9): 7 (17.1) n (%)
- Imputed non-responder n (%), UAS7 ≤6 (Week 9): 7 (17.1) n (%)
- Non-responder n (%), UAS7 = 0 (Week 9): 37 (90.2) n (%)
- Non-responder n (%), UAS7 ≤6 (Week 9): 26 (63.4) n (%)
- OR for rilzabrutinib vs. placebo, UAS7 = 0 (Week 9): 1.117
- OR for rilzabrutinib vs. placebo, UAS7 ≤6 (Week 9): 4.680
- RRD (%) for rilzabrutinib vs. placebo, UAS7 = 0 (Week 9): 0.8 %
- RRD (%) for rilzabrutinib vs. placebo, UAS7 ≤6 (Week 9): 22.0 %
- Responder n (%), UAS7 = 0 (Week 9): 4 (9.8) n (%)
- Responder n (%), UAS7 ≤6 (Week 9): 15 (36.6) n (%)
- Imputed non-responder n (%), UAS7 = 0 (Week 10): 7 (17.1) n (%)
- Imputed non-responder n (%), UAS7 ≤6 (Week 10): 7 (17.1) n (%)
- Non-responder n (%), UAS7 = 0 (Week 10): 35 (85.4) n (%)
- Non-responder n (%), UAS7 ≤6 (Week 10): 27 (65.9) n (%)
- OR for rilzabrutinib vs. placebo, UAS7 = 0 (Week 10): 1.210
- OR for rilzabrutinib vs. placebo, UAS7 ≤6 (Week 10): 2.074
- RRD (%) for rilzabrutinib vs. placebo, UAS7 ≤6 (Week 10): 12.9 %
- Responder n (%), UAS7 = 0 (Week 10): 6 (14.6) n (%)
- Responder n (%), UAS7 ≤6 (Week 10): 14 (34.1) n (%)
- Imputed non-responder n (%), UAS7 = 0 (Week 11): 6 (14.6) n (%)
- Imputed non-responder n (%), UAS7 ≤6 (Week 11): 6 (14.6) n (%)
- Non-responder n (%), UAS7 = 0 (Week 11): 34 (82.9) n (%)
- Non-responder n (%), UAS7 ≤6 (Week 11): 26 (63.4) n (%)
- OR for rilzabrutinib vs. placebo, UAS7 = 0 (Week 11): 3.449
- OR for rilzabrutinib vs. placebo, UAS7 ≤6 (Week 11): 2.322
- RRD (%) for rilzabrutinib vs. placebo, UAS7 = 0 (Week 11): 10.4 %
- RRD (%) for rilzabrutinib vs. placebo, UAS7 ≤6 (Week 11): 15.0 %
- Responder n (%), UAS7 = 0 (Week 11): 7 (17.1) n (%)
- Responder n (%), UAS7 ≤6 (Week 11): 15 (36.6) n (%)
- Imputed non-responder n (%), UAS7 = 0 (Week 12): 11 (26.8) n (%)
- Imputed non-responder n (%), UAS7 ≤6 (Week 12): 11 (26.8) n (%)
- Non-responder n (%), UAS7 = 0 (Week 12): 31 (75.6) n (%)
- Non-responder n (%), UAS7 ≤6 (Week 12): 26 (63.4) n (%)
- OR for rilzabrutinib vs. placebo, UAS7 = 0 (Week 12): 1.995
- OR for rilzabrutinib vs. placebo, UAS7 ≤6 (Week 12): 3.721
- RRD (%) for rilzabrutinib vs. placebo, UAS7 = 0 (Week 12): 9.4 %
- RRD (%) for rilzabrutinib vs. placebo, UAS7 ≤6 (Week 12): 20.9 %
- Responder n (%), UAS7 = 0 (Week 12): 10 (24.4) n (%)
- Responder n (%), UAS7 ≤6 (Week 12): 15 (36.6) n (%)
- UAS7 Post-baseline Mean (SD) (400 mg BID, Week 1): 19.77 (11.32)
- UAS7 Post-baseline Mean (SD) (400 mg BID, Week 2): 19.59 (10.86)
- UAS7 Post-baseline Mean (SD) (400 mg BID, Week 3): 17.71 (11.91)
- UAS7 Post-baseline Mean (SD) (400 mg BID, Week 4): 15.92 (11.71)
- UAS7 Post-baseline Mean (SD) (400 mg BID, Week 5): 17.22 (13.36)
- UAS7 Post-baseline Mean (SD) (400 mg BID, Week 6): 17.02 (12.76)
- UAS7 Post-baseline Mean (SD) (400 mg BID, Week 7): 15.55 (11.97)
- UAS7 Post-baseline Mean (SD) (400 mg BID, Week 8): 13.98 (13.06)
- UAS7 Post-baseline Mean (SD) (400 mg BID, Week 9): 14.64 (14.43)
- UAS7 Post-baseline Mean (SD) (400 mg BID, Week 10): 15.22 (14.36)
- UAS7 Post-baseline Mean (SD) (400 mg BID, Week 11): 15.06 (13.80)
- UAS7 Post-baseline Mean (SD) (400 mg BID, Week 12): 15.61 (13.91)
- UAS7 Post-baseline Mean (SD) (400 mg QPM, Week 1): 23.81 (8.78)
